This is an account of results in US7342089B2, “Cyclic peptides for treatment for cachexia” (Palatin Technologies, Inc., priority 2002, dated 2008).

A word on the Ki: it is a measure of affinity in units of concentration, obtained from inhibition or displacement. The EC50 is the concentration at which the effect is half-maximal.

Each structure is given as a SMILES string. Positions of bridges follow the written chain, without caps; N, C: chain ends. Non-standard residues stand in square brackets, D forms with d. Residues, ends and D or L forms follow the SMILES beside them. 2Nal = N[C@@H](Cc1ccc2ccccc2c1)C(=O)O; d2Nal = N[C@H](Cc1ccc2ccccc2c1)C(=O)O; Nle = CCCC[C@H](N)C(=O)O

In one test the target is T1, hMC4-R (Homo sapiens, UniProt P32245).
T1 construct: expressed in transfected cells; host or cells: HEK-293
T1 sequence (P32245 whole entry): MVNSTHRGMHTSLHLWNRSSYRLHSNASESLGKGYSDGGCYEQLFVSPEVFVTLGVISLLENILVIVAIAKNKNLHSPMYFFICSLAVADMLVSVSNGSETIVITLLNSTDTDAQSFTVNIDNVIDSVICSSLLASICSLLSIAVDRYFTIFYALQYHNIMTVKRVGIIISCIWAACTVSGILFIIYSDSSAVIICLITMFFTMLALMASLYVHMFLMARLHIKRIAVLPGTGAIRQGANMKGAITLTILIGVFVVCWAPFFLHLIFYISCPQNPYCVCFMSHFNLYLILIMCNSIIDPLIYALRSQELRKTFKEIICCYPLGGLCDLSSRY
The test is described as follows: Competitive inhibition binding assay using [I125]-NDP-α-MSH, hMC4-R. To be noted: HEK-293 membranes, read-out: Ki MC4-R.

Another test addresses T2, hMC3-R (HEK-293 cells) (Homo sapiens, UniProt P41968).
T2 construct: expressed in transfected cells; host or cells: HEK-293
The test can be described thus: cAMP assay for agonist/antagonist status and functional antagonism, MC3-R. The class given is cell-based. To be noted: cAMP assay.

The target of another test is T3, hMC5-R (Homo sapiens, UniProt P33032).
T3 construct: expressed in transfected cells; host or cells: HEK-293
T3 sequence (P33032 whole entry): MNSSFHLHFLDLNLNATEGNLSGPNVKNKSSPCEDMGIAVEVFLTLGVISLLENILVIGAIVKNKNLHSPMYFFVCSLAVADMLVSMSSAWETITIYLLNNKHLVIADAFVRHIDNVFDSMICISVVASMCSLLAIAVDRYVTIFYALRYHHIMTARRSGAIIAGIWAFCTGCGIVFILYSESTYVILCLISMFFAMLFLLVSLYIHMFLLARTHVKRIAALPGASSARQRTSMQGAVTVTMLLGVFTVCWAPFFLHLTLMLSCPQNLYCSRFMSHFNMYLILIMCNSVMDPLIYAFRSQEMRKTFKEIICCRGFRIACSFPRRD
The test is described as follows: Competitive inhibition binding assay using [I125]-NDP-α-MSH, hMC5-R. The settings on record: HEK-293 membranes, read-out: Ki MC5-R.

The test system of a further test is rats. The test is described as follows: ICV feeding studies. Format: in vivo, rat. The settings on record: lowest value of multiple tests, parentheses = decrease. As to the method: (§1) Change in food intake and body weight is evaluated for selected peptides. Rats with indwelling intracerebroventricular cannulas (ICV rats) are obtained from Hilltop Lab Animals, Inc. (Scottdale, Pa.). Animals are individually housed in conventional plexiglass hanging cages and maintained on a controlled 12 hour on/off light cycle. Water and powdered (LabDiet, 5P00 Prolab RMH 3000) or pelleted (Harlan Teklad 2018 18% Protein Rodent Diet) food is provided ad libitum. For 1 week before treatment, 24-hour food intake and body weight change is recorded to assess a baseline for the group during vehicle treatment. The rats are dosed ICV with vehicle or selected cyclic peptides (0.3-3 nmol). The changes in body weight and food intake for the 24 hour period after dosing are determined. The changes in body weight and food intake for the 48 hour and 72 hour periods after dosing are also measured to determine reversal of changes in body weight and food intake effects back to baseline levels.
A series of ICV feeding studies were conducted on rats. All animals were dosed on the first day with saline ICV, and given a pre-weighed food bowl with food weight recorded at 2 and 21 hours post-ICV injection. On day 2, animals were randomized based on the 21 hour food consumption, with animals eliminated due to low food consumption or food spills. […] Food weights were again recorded at 2, 4, 21 and 24 hours post-icv injection. In most instances, multiple different tests were conducted which each group containing between 8 and 12 members; the lowest value is shown below. Values are shown as percent increase (decrease) in aggregate food intake. “ND” means no test was conducted at that dose level.

The next test has as its target T4, hMC3-R (Homo sapiens, UniProt P41968).
T4 construct: expressed in transfected cells; host or cells: HEK-293
The test can be described thus: Competitive inhibition binding assay using [I125]-NDP-α-MSH, hMC3-R. To be noted: HEK-293 membranes, read-out: Ki MC3-R.

The test system of a further test is male Sprague-Dawley rats. The test is described as follows: IV food intake and body weight change. To be noted: 1 mg/kg IV, 24 hour period (FIG. 1). The class given is in vivo, rat. On the procedure:
as §1, with “peptides. Male Sprague-Dawley rats” for “peptides. Rats with indwelling intracerebroventricular cannulas (ICV rats)”, “from Taconic (Germantown, N.Y.).” for “from Hilltop Lab Animals, Inc. (Scottdale, Pa.).”, “dosed IV or IP” for “dosed ICV”, “selected” for “selected cyclic”, “peptides (0.5-3 mg/kg).” for “peptides (0.3-3 nmol).”, “to determined” for “to determine”
Briefly, male Sprague-Dawley rats (300-350 g) were individually housed in shoe box cages with a 12 hr light/dark period. Food intake and body weights were monitored for 24 hours prior to the start of the study. Rats were randomized by body weight and then dosed IV just before lights-off with the compound of Example 12 or the same volume of vehicle. A pre-weighed amount of food was provided and food intake was determined at 2, 4, 20 and 24 hours. […]

For a further test, the target named is T5, hMC4-R (HEK-293 cells) (Homo sapiens, UniProt P32245).
T5 construct: expressed in transfected cells; host or cells: HEK-293
T5 sequence (P32245 whole entry): as the sequence (P32245 whole entry) above
The test can be described thus: cAMP assay for agonist/antagonist status and functional antagonism, MC4-R. Format: cell-based. On the technique in general: Changes in cAMP serve as a functional read-out for many G protein-coupled receptors.

In test [1] the target is T6, MC1-R (B-16 mouse melanoma cells) (Mus musculus, UniProt Q01727). The test can be described thus: cAMP assay for agonist/antagonist status, MC1-R. Format: cell-based. On the procedure:
Cells are incubated with the test peptides in the presence or absence of α-MSH for 1 hour at 37° C. cAMP levels in the cell lysates are measured using the EIA kit (Amersham). Data analysis and EC50 values are determined using nonlinear regression analysis with Prism Graph-Pad software.
The agonist/antagonist status with respect to MC1-R, MC4-R and MC5-R of certain peptides of the invention is determined. Antagonistic activity is determined by measuring the inhibition of α-MSH-induced or NDP-α-MSH-induced cAMP levels following exposure to the peptides as in the preceding descriptions.

The target of test [2] is T6, MC1-R (B-16 mouse melanoma cells). The test can be described thus: Competitive inhibition binding assay using [I125]-NDP-α-MSH, MC1-R. The settings on record: B-16 mouse melanoma cell membranes. As to the method: Each assay is conducted in triplicate.

T6 sequence (Q01727 whole entry): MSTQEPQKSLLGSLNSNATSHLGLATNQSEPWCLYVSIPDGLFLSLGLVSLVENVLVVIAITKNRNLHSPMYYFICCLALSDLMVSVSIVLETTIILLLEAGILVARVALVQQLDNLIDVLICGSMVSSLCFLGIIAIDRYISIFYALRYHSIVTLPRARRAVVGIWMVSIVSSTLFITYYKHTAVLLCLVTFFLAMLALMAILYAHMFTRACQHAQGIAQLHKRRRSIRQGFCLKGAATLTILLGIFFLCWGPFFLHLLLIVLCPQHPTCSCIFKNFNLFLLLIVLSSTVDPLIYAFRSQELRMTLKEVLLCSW
T4 sequence (P41968 whole entry): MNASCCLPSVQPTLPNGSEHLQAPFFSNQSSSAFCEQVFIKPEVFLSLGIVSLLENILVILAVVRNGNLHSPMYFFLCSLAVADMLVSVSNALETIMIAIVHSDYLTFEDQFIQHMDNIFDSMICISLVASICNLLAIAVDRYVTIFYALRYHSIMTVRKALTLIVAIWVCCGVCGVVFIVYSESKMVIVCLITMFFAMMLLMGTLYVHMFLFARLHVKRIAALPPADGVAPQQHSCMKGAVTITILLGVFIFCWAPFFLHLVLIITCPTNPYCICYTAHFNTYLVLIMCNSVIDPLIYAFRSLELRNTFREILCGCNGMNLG
T2 sequence (P41968 whole entry): as above
Method for hMC3-R (HEK-293 cells): Assay for neutral antagonist.
Experimental details are similar to the analysis for agonistic activity and are described above. Briefly, cells are pre-incubated for 30 minutes with the test peptides at concentrations between 0.5 nM and 5000 nM. […] For Schild's analysis, the interactions are studied using at least 3 concentrations of the peptides, separated by a log unit, over a full range of the agonist (0.005-5000 nM). cAMP levels is measured in the cell lysates after appropriate dilution. Nonlinear regression analysis with the Prism Graph-Pad software is used for Schild's analysis and to obtain EC50 values. pA2 values are derived from the Schild's plot.
Method for hMC4-R (HEK-293 cells): Confluent HEK-293 cells over-expressing MC4-R are detached by enzyme free cell suspension buffer. […] The cells are plated in a 96 well plates at a density of 0.5×10^5 cells per well and pre-incubated for 30 minutes. The cells are then challenged with the test peptides dissolved in dimethylsulfoxide (DMSO) at a concentration range of 0.05-5000 nM in a total assay volume of 200 μL for 1 hour at 37° C. The concentration of DMSO is always held at 1% in the assay mixture. […] At the end of the incubation period the cells are disrupted by the addition of 50 μL lysis buffer from the cAMP EIA kit (Amersham). Complete rupture of the cells is ensured by pipetting the cells up and down multiple times. cAMP levels in the cell lysates are measured after appropriate dilution using the EIA kit (Amersham) method. Data analysis and EC50 values are determined by using nonlinear regression analysis with the Prism Graph-Pad software. […] Peptides with a response ratio of less than 0.1 are evaluated for antagonistic activity.
Briefly, cells are pre-incubated for 30 minutes with the test peptides at concentrations between 0.5 nM and 5000 nM. […] For Schild's analysis, the interactions are studied using at least 3 concentrations of the peptides, separated by a log unit, over a full range of the agonist (0.005-5000 nM). cAMP levels is measured in the cell lysates after appropriate dilution. Nonlinear regression analysis with the Prism Graph-Pad software is used for Schild's analysis and to obtain EC50 values. pA2 values are derived from the Schild's plot.

`CCCC[C@H](NC(C)=O)C(=O)N[C@H]1CC(=O)NCCCC[C@@H](C(=O)O)NC(=O)[C@H](Cc2ccc3ccccc3c2)NC(=O)[C@H](CCCNC(=N)N)NC(=O)[C@@H](Cc2ccc3ccccc3c2)NC(=O)[C@H](Cc2c[nH]cn2)NC1=O` [Example 12, Ac-Nle-cyclo(-Asp-His-D-Nal 2-Arg-Nal 2-Lys)-OH] (Ac-[Nle]DH[d2Nal]R[2Nal]K-OH; lactam 2-7): the inhibition constant Ki worked out at 0.02 nM at hMC4-R, 0.2 nM at hMC5-R, 0.3 nM at hMC3-R and 0.2 nM in [2]. The “agonist/antagonist status as to MC3-R” value on hMC3-R (HEK-293 cells) is reported as “antagonist”. Further, the “Percent Increase (Decrease) In Aggregate Food Intake After ICV Administration of Peptide Compared to Vehicle (Saline)” value was determined as 36% in the test with rats (0.3 nmol) and 48% with rats (1 nmol). In addition, the “cumulative food intake compared to vehicle” value in the test on male Sprague-Dawley rats is given as “increase in food intake”. The “agonist/antagonist status as to MC4-R” value at hMC4-R (HEK-293 cells) (cAMP assay) is on record as “antagonist”. For the same compound, at hMC4-R (HEK-293 cells) (functional antagonism, Schild's analysis vs NDP-α-MSH, read-out: pA2 value as to MC4-R (converted)), the Kb is 7.59 nM. For the same compound, in test [1], the “agonist/antagonist status as to MC1-R” value is “partial agonist”. The EC50 in test [1] (read-out: EC50 as to MC1-R) was determined as 5 nM.
